Measured values taken from patent US20200253978A1, “HETEROCYCLICS AS INHIBITORS OF FIBROBLAST GROWTH FACTOR RECEPTOR” (ADVENT PHARMA CO. LTD., priority 2017, published 2020).

Columns and labels:
[1] = biological target: T1, BaF3 cells expressing Tel-FGFR-1 and luciferase (Homo sapiens, UniProt P11362); test: BaF3 cellular growth inhibition assay, Tel-FGFR-1 and luciferase (Bright-Glo); format: cell-based; settings: BaF3 Tel-FGFR-1 cells, 2 days incubation, 50% growth inhibition vs DMSO
T1 construct: Luciferase is co-expressed as a viability reporter and is not part of the key; P41212 (Transcription factor ETV6)
T1 sequence (P11362 478-767 limits assumed): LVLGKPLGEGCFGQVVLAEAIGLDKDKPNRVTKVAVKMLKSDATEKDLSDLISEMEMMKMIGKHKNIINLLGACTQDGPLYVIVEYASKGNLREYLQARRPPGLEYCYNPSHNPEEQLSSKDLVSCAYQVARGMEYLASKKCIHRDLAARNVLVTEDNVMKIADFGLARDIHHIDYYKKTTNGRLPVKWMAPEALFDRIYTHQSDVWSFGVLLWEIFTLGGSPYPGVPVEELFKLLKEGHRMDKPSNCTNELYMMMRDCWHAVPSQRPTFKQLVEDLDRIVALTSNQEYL
Description: (§1) Compounds' inhibitory activities against FGFR-4 or FGFR-1 were measured in BaF3 cells expressing Tel-FGFR-4 and luciferase or Tel-FGFR-1 and luciferase, whose growth was dependent on FGFR-4 or FGFR-1 kinase but independent of IL-3. The cells were plated in 384-well plates in RPMI1640 with 10% FBS. Compounds were added as 11-point dilutions. Cell viability was determined by Bright-Glo luciferase assay (Promega) after cells were incubated with compounds for 2 days. The IC50 value was determined as the concentration for 50% growth inhibition compared to DMSO treated cells (A: IC50<0.1 μM; B: IC50 between 0.1 μM and 1 μM; C: IC50 between 1 μM and 10 μM).

[2] = biological target: T2, BaF3 cells expressing Tel-FGFR-4 and luciferase (Homo sapiens, UniProt P22455); test: BaF3 cellular growth inhibition assay, Tel-FGFR-4 and luciferase (Bright-Glo); format: cell-based; settings: BaF3 Tel-FGFR-4 cells, 2 days incubation, 50% growth inhibition vs DMSO
T2 construct: Luciferase is co-expressed as a viability reporter and is not part of the key; P41212 (Transcription factor ETV6)
T2 sequence (P22455 467-755 limits assumed): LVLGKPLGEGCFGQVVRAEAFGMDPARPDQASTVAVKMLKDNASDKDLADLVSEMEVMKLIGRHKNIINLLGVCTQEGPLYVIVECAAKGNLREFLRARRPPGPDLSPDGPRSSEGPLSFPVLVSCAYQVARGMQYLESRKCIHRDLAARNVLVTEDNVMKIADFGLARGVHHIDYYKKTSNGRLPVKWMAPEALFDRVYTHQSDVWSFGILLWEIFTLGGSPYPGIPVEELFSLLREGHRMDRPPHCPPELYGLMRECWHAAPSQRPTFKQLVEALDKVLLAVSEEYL
Description: as §1

Compound	IC50 ([1]; numeric bounds)	IC50 [2]	IC50 ([1]; class symbols)
C=CC(=O)Nc1cccc(C)c1Nc1cc2cc(C(O)c3c(F)c(OC)cc(OC)c3F)sc2cn1 (racemic) [Example 28, (±)-N-(2-((2-((2,6-difluoro-3,5-dimethoxyphenyl)(hydroxy)methyl)thieno[2,3-c]pyridin-5-yl)amino)-3-methylphenyl)acrylamide]	> 10000 nM	< 100 nM	–
C=CC(=O)Nc1cccc(Cl)c1Nc1cc2cc(C(O)c3c(F)c(OC)cc(OC)c3F)oc2cn1 (racemic) [Example 29, (±)-N-(3-chloro-2-((2-((2,6-difluoro-3,5-dimethoxyphenyl)(hydroxy)methyl)furo[2,3-c]pyridin-5-yl)amino)phenyl)acrylamide]	> 10000 nM	< 100 nM	–
C=CC(=O)Nc1cccc(C(F)(F)F)c1Nc1cc2cc(C(O)c3c(F)c(OC)cc(OC)c3F)oc2cn1 (racemic) [Example 30, (±)-N-(2-((2-((2,6-difluoro-3,5-dimethoxyphenyl)(hydroxy)methyl)furo[2,3-c]pyridin-5-yl)amino)-3-(trifluoromethyl)phenyl)acrylamide]	> 10000 nM	100 to 1000 nM	–
C=CC(=O)Nc1cc(N2CCN(CC)CC2)ccc1Nc1ncc2oc(C(O)c3c(F)c(OC)cc(OC)c3F)cc2n1 (racemic) [Example 31, (±)-N-(2-((6-((2,6-difluoro-3 ,5-dimethoxyphenyl)(hydroxy)methyl)furo[3,2-d]pyrimidin-2-yl)amino)-5-(4-ethylpiperazin-1-yl)phenyl)acrylamide]	–	< 100 nM	1000 to 10000 nM
C=CC(=O)Nc1cc(N2CCN(CC)CC2)ccc1Nc1ccc2c(ccn2Cc2c(F)c(OC)cc(OC)c2F)n1 [Example 1, N-(2-((1-(2,6-difluoro-3,5-dimethoxybenzyl)-1H-pyrrolo[3,2-b]pyridin-5-yl)amino)-5-(4-ethylpiperazin-1-yl)phenyl)acrylamide]	> 3300 nM	100 to 1000 nM	–
C=CC(=O)Nc1cc(N2CCN(CC)CC2)ccc1Nc1cc2cc(C(F)(F)c3c(F)c(OC)cc(OC)c3F)oc2cn1 [Example 8, N-(2-((2-((2,6-difluoro-3,5-dimethoxyphenyl)difluoromethyl)furo[2,3-c]pyridin-5-yl)amino)-5-(4-ethylpiperazin-1-yl)phenyl)acrylamide]	> 10000 nM	100 to 1000 nM	–
C=CC(=O)Nc1cc(N2CCN(CC)CC2)ccc1Nc1cc2cc(C(=O)c3cc(OC)cc(OC)c3)oc2cn1 [Example 11, N-(2-((2-(3,5-dimethoxybenzoyl)furo[2,3-c]pyridin-5-yl)amino)-5-(4-ethylpiperazin-1-yl)phenyl)acrylamide]	–	100 to 1000 nM	1000 to 10000 nM
C=CC(=O)N[C@H]1CCOC[C@H]1Nc1cc2cc(C(=O)c3c(F)c(OC)cc(OC)c3F)oc2cn1 [Example 12, N-((3S,4S)-3-((2-(2,6-difluoro-3,5-dimethoxybenzoyl)furo[2,3-c]pyridin-5-yl)amino)tetrahydro-2H-pyran-4-yl)acrylamide]	> 10000 nM	100 to 1000 nM	–
C=CC(=O)Nc1cc(N2CCN(CC)CC2)ccc1Nc1cc2cc(C(=O)c3c(F)c(OC)cc(OC)c3F)sc2cn1 [Example 16, N-(2-((2-(2,6-difluoro-3,5-dimethoxybenzoyl)thieno[2,3-c]pyridin-5-yl)amino)-5-(4-ethylpiperazin-1-yl)phenyl)acrylamide]	–	< 100 nM	1000 to 10000 nM
C=CC(=O)Nc1cc(N2CCN(CC)CC2)ccc1Nc1ncc2oc(C(=O)c3c(F)c(OC)cc(OC)c3F)cc2n1 [Example 20, N-(2-((6-(2,6-difluoro-3,5-dimethoxybenzoyl)furo[3,2-d]pyrimidin-2-yl)amino)-5-(4-ethylpiperazin-1-yl)phenyl)acrylamide]	–	< 100 nM	1000 to 10000 nM

The remaining lines, values ahead:

IC50 ([1]; numeric bounds)	IC50 [2]	IC50 ([1]; class symbols)	Compound
> 10000 nM	< 100 nM	–	C=CC(=O)Nc1cc(N2CCN(CC)CC2)ccc1Nc1cc2cc(C(O)c3c(F)c(OC)cc(OC)c3F)oc2cn1 (racemic) [Example 5, (±)-N-(2-((2-((2,6-difluoro-3,5-dimethoxyphenyl)(hydroxy)methyl)furo[2,3-c]pyridin-5-yl)amino)-5-(4-ethylpiperazin-1-yl)phenyl)acrylamide]
> 10000 nM	100 to 1000 nM	–	C=CC(=O)Nc1cc(N2CCN(CC)CC2)ccc1Nc1cc2cc(C(C)(O)c3c(F)c(OC)cc(OC)c3F)oc2cn1 (racemic) [Example 7, (±)-N-(2-((2-(1-(2,6-difluoro-3,5-dimethoxyphenyl)-1-hydroxyethyl)furo[2,3-c]pyridin-5-yl)amino)-5-(4-ethylpiperazin-1-yl)phenyl)acrylamide]
> 3300 nM	100 to 1000 nM	–	C=CC(=O)Nc1cn(C)nc1Nc1cc2cc(C(O)c3c(F)c(OC)cc(OC)c3F)oc2cn1 (racemic) [Example 10, (±)-N-(3-((2-((2,6-difluoro-3,5-dimethoxyphenyl)(hydroxy)methyl)furo[2,3-c]pyridin-5-yl)amino)-1-methyl-1H-pyrazol-4-yl)acrylamide]
> 10000 nM	100 to 1000 nM	–	C=CC(=O)N[C@H]1CCOC[C@H]1Nc1cc2cc(C(O)c3c(F)c(OC)cc(OC)c3F)oc2cn1 (mixture of isomers) [Example 14, (±)N-((3S,4S)-3-((2-((2,6-difluoro-3,5-dimethoxyphenyl)(hydroxy)methyl)furo[2,3-c]pyridin-5-yl)amino)tetrahydro-2H-pyran-4-yl)acrylamide]
> 10000 nM	< 100 nM	–	C=CC(=O)Nc1cc(N2CCN(CC)CC2)ccc1Nc1cc2cc(C(O)c3c(F)c(OC)cc(OC)c3F)oc2cn1 (single isomer, unassigned) [Example 13A, N-(2-((2-((2,6-difluoro-3,5-dimethoxyphenyl)(hydroxy)methyl)furo[2,3-c]pyridin-5-yl)amino)-5-(4-ethylpiperazin-1-yl)phenyl)acrylamide]
> 10000 nM	–	–	C=CC(=O)Nc1cc(N2CCN(CC)CC2)ccc1Nc1cc2cc(C(O)c3c(F)c(OC)cc(OC)c3F)oc2cn1 (single isomer, unassigned) [Example 13B, N-(2-((2-((2,6-difluoro-3,5-dimethoxyphenyl)(hydroxy)methyl)furo[2,3-c]pyridin-5-yl)amino)-5-(4-ethylpiperazin-1-yl)phenyl)acrylamide]
> 10000 nM	< 100 nM	–	C=CC(=O)Nc1cc(N2CCN(CC)CC2)ccc1Nc1cc2cc(C(=O)c3c(F)c(OC)cc(OC)c3F)oc2cn1 [Example 3, N-(2-((2-(2,6-difluoro-3,5-dimethoxybenzoyl)furo[2,3-c]pyridin-5-yl)amino)-5-(4-ethylpiperazin-1-yl)phenyl)acrylamide]
> 10000 nM	< 100 nM	–	C=CC(=O)Nc1cccc(C)c1Nc1cc2cc(C(=O)c3c(F)c(OC)cc(OC)c3F)oc2cn1 [Example 17, N-(2-((2-(2,6-difluoro-3,5-dimethoxybenzoyl)furo[2,3-c]pyridin-5-yl)amino)-3-methylphenyl)acrylamide]
–	100 to 1000 nM	1000 to 10000 nM	C=CC(=O)Nc1cc(N2CCN(CC)CC2)ccc1Nc1cc2cc(C(=O)c3c(F)c(OC)cc(OC)c3F)n(C)c2cn1 [Example 19, N-(2-((2-(2,6-difluoro-3,5-dimethoxybenzoyl)-1-methyl-1H-pyrrolo[2,3-c]pyridin-5-yl)amino)-5-(4-ethylpiperazin-1-yl)phenyl)acrylamide]
